Experimental data: article PMC7397269, “Synthesis and Evaluation of New Coumarin Derivatives as Antioxidant, Antimicrobial, and Anti-Inflammatory Agents” (Molecules, 2020)
Converted amounts (≈) assume the structure as drawn. Where two headings read alike, the source gives them in different places.

Experiments:
[1] = system: Escherichia coli ATCC 2592; test: Agar well diffusion, E. coli; assay type: cell-based; conditions: ATCC2592, 100 μL of 10 mg/mL in DMSO, read-out: diameter of inhibition zone, EC
Description: (§1) The new molecules were individually tested for their antimicrobial activity in vitro against standard bacteria strains from the American Type Culture Collection (ATCC), namely, Staphylococcus aureus ATCC 29213, Bacillus subtilis ATCC 6633, Bacillus megaterium ATCC 9885 (Gram-positive), Escherichia coli ATCC 2592, and Pseudomonas aeruginosa ATCC 27,953 (Gram-negative). The compounds were also microbiologically tested against locally isolated Saccharomyces cerevisiae (yeast) and the standard Agricultural Research Service Culture Collection (NRRL) strain of the yeast-like pathogenic fungus Candida albicans NRRL Y-477. Primary screening was conducted using the agar well diffusion method using nutrient agar (NA) medium and Sabourand dextrose agar (SDA) medium for the tested pathological bacteria and yeast, respectively. […].
(§2) Antimicrobial tests were conducted via the agar well diffusion method using 100 μL of suspension containing 1 × 10^8 CFU/mL pathological tested bacteria and 1 × 10^6 CFU/mL yeast spread on NA and SDA, respectively. After the media cooled and solidified, wells (10 mm in diameter) were made in the solidified agar and loaded with 100 μL of the tested compound solution prepared by dissolving 10 mg of the chemical compound in 1 mL dimethyl sulfoxide (DMSO). The inoculated plates were then incubated for 24 h at 37 °C for bacteria and yeast growth. DMSO served as negative control. Ciprofloxacin (10 mg/mL) and ketoconazole (10 mg/mL) were used as standards for antibacterial and antifungal activity, respectively. After incubation, antimicrobial activity was evaluated by measuring the zone of inhibition against the test organisms and compared with that of the standard. Antimicrobial activities were expressed as the diameter of the inhibition zone (IZ) in mm. The experiment was carried out in triplicate and the average zone of inhibition was calculated.

trypsin = test: Proteinase-inhibitory activity; assay type: biochemical; conditions: 250 µg/mL; mean ± SD (n = 3)
Experimental: The newly synthesised compounds were individually tested for their in vitro anti-inflammatory activity against proteinase enzyme. […] This test was performed at the Pharmacology Department, Medical Research Division, National Research Centre, Cairo, Egypt. Furthermore, compounds 2–8 were evaluated for their COX1/COX2 inhibitory activities.
The test was performed according to El-Serwy et al. with minor modifications. The reaction mixture (2 mL) contained 0.06 mg trypsin, 20 mM Tris HCl buffer (pH 7.4), and 1 mL test sample (250 µg/mL for each compound). After incubating for 5 min, 1 mL of 0.8% (w/v) casein was added. The mixture was incubated for an additional 20 min. The reaction was arrested by adding 1 mL of 10% perchloric acid. The cloudy suspension was centrifuged, and the absorbance of the supernatant was read at 280 nm. Reference standard aspirin was used as the positive control. The experiment was performed in triplicate. The percent inhibition of protein denaturation was calculated using the following Equation (2):(2) % Inhibition=100−A control −A test/A control×100 where Acontrol and Atest represent the absorbance of the control reaction without and with the sample, respectively.

COX-1 = biological target: T1, COX-1 (Homo sapiens, UniProt P23219); test: COX-1 inhibition, Cayman assay kit; assay type: biochemical; conditions: mean of two determinations
T1 construct: purchased Cayman Chemical 701070
T1 sequence (P23219 24-599): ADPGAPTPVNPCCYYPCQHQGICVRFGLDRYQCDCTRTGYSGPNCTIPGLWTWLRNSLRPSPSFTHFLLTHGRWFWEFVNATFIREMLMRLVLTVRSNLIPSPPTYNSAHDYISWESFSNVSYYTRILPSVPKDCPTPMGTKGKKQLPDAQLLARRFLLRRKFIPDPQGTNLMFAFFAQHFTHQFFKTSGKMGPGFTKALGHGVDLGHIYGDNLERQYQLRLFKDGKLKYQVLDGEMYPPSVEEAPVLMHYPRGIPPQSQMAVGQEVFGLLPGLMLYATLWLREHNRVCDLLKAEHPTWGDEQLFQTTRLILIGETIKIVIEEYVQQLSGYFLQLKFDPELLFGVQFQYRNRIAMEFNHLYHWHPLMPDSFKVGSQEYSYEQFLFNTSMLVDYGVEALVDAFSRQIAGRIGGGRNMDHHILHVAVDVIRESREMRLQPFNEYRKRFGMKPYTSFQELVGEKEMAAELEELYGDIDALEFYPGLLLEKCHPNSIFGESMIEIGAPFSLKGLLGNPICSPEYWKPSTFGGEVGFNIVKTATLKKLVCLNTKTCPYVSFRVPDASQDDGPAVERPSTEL

[2] = system: Saccharomyces cerevisiae local isolate; test: MIC, two-fold serial dilution, S. cerevisiae; assay type: cell-based; conditions: read-out: Minimum inhibitory concentration, SC
Description: as §1
(§3) The bacteriostatic activity of the active compounds (having IZ > 16 mm) was then evaluated using the two-fold serial dilution technique. Two-fold serial dilutions of the tested compounds solutions were prepared using the proper nutrient broth to reach final concentrations of 1000, 500, 250, and 125 μg/mL. The tubes were then inoculated with the test microorganisms grown in their suitable broth at 37 °C for 24 h (1 × 10^8 CFU/mL for bacteria and 1 × 10^6 CFU/mL of yeast), 0.1 mL of the above inoculum was administered per 5 mL, and the tubes were incubated at 37 °C for 24 h. The lowest concentration showing no growth was taken as the MIC.

COX-2 = biological target: T2, COX-2 (Homo sapiens, UniProt P35354); test: COX-2 inhibition, Cayman assay kit; assay type: biochemical
T2 construct: purchased Cayman Chemical 701080
T2 sequence (P35354 18-604): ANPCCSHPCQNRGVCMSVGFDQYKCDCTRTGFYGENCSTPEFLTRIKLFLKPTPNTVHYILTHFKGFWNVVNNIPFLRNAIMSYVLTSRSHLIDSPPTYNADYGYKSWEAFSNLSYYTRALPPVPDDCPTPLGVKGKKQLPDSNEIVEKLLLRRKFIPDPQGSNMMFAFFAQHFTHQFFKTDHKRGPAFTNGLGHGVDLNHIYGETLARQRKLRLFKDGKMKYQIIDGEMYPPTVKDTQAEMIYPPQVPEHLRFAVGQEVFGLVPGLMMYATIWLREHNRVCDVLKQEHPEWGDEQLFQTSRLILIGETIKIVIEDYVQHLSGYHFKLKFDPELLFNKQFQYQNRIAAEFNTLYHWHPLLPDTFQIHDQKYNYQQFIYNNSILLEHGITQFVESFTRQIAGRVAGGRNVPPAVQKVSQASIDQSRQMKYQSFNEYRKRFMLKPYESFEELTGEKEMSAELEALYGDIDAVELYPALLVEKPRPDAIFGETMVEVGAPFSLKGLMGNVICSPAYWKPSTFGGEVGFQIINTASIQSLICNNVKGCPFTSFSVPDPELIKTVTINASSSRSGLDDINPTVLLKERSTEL

[3] = system: Pseudomonas aeruginosa ATCC 27,953; test: Agar well diffusion, P. aeruginosa; assay type: cell-based; conditions: ATCC27, 100 μL of 10 mg/mL in DMSO, read-out: diameter of inhibition zone, PA
Description: as §1, §2

[4] = DPPH antioxidant assay (radical scavenging); assay type: biochemical; conditions: mean ± SD (n = 3)
Experimental: The antioxidant effects of the synthesised compounds were assessed using the 2,2-diphenyl-1-picrylhydrazyl (DPPH) antioxidant assay. Table 1 summarises the antioxidant effects of the test samples and ascorbic acid except for compound 5b because it was produced in poor yield.
The radical scavenging activity of the synthesised compounds was measured using the DPPH microplate-based method. The absorbance was measured using a microplate/cuvette reader (Spectramax M5, Molecular Devices, San Jose, CA, USA). Reference standard ascorbic acid was utilised as the positive control for this assay. Test samples were prepared at a starting concentration of 200 μg/mL after mixing with 100 μL of 0.2 mM DPPH methanolic solution. […] Samples were incubated with DPPH in the dark for 30 min at room temperature (25 °C). The methanolic DPPH solution was prepared daily and stored in a flask covered with aluminium foil. DPPH radicals have an absorption maximum (λmax) at 515 nm, at which the absorbance values were measured and converted into a percentage of antioxidant activity.
The methanolic DPPH solution without antioxidants was used as a control, and samples in methanol alone served as a background control. IC50 was determined using GraphPad Prism 7 (GraphPad Software Inc., San Diego, CA, USA). The percent inhibition was calculated using the following Equation (1):(1) % Inhibition=100−Sample Absorbance −Sample background Absorbance/DPPH only Absorbance×100
The assay was carried out in triplicate and performed as much as possible in an area protected against light. The data points are presented as the mean ± standard deviation (SD, n = 3).

[5] = system: Saccharomyces cerevisiae local isolate; test: Agar well diffusion, S. cerevisiae; assay type: cell-based; conditions: read-out: diameter of inhibition zone, SC
Description: as §1, §2

[6] = system: Bacillus megaterium ATCC 9885; test: Agar well diffusion, B. megaterium; assay type: cell-based; conditions: Priestia megaterium, ATCC9885, 100 μL of 10 mg/mL in DMSO, read-out: diameter of inhibition zone, BM
Description: as §1, §2

[7] = system: Candida albicans NRRL Y-477; test: MIC, two-fold serial dilution, C. albicans; assay type: cell-based; conditions: NRRLY477, read-out: Minimum inhibitory concentration, CA
Description: as §1, §3

[8] = system: Staphylococcus aureus ATCC 29213; test: Agar well diffusion, S. aureus; assay type: cell-based; conditions: ATCC29213, 100 μL of 10 mg/mL in DMSO, read-out: diameter of inhibition zone, SA
Description: as §1, §2

[9] = system: Bacillus subtilis ATCC 6633; test: Agar well diffusion, B. subtilis; assay type: cell-based; conditions: ATCC6633, 100 μL of 10 mg/mL in DMSO, read-out: diameter of inhibition zone, BS
Description: as §1, §2

[10] = system: Candida albicans NRRL Y-477; test: Agar well diffusion, C. albicans; assay type: cell-based; conditions: NRRLY477, 100 μL of 10 mg/mL in DMSO, read-out: diameter of inhibition zone, CA
Description: as §1, §2

[11] = system: Bacillus megaterium ATCC 9885; test: MIC, two-fold serial dilution, B. megaterium; assay type: cell-based; conditions: Priestia megaterium, ATCC9885, read-out: Minimum inhibitory concentration, BM
Description: as §1, §3

[12] = system: Bacillus subtilis ATCC 6633; test: MIC, two-fold serial dilution, B. subtilis; assay type: cell-based; conditions: ATCC6633, read-out: Minimum inhibitory concentration, BS
Description: as §1, §3

[13] = well diffusion, 100 μL of 10 mg/mL in DMSO, S. cerevisiae

Compound	zone of inhibition at 10000 µg/mL [1] [mm]	% Inhibition (proteinase) (trypsin) [%]	melting point [°C]	IC50 (COX-1) [µM]	MIC [2] [µg/mL]	IC50 (COX-2; mean of two determinations) [µM]	SI, selectivity index (COX-1/COX-2) (COX-2; ratio of COX-1/COX-2 IC50)	zone of inhibition at 10000 µg/mL [3] [mm]	IC50 [4]	zone of inhibition at 10000 µg/mL [5] [mm]	zone of inhibition at 10000 µg/mL [6] [mm]	MIC [7] [µg/mL]	zone of inhibition at 10000 µg/mL [8] [mm]	zone of inhibition at 10000 µg/mL [9] [mm]	zone of inhibition at 10000 µg/mL [10] [mm]	MIC [11] [µg/mL]	zone of inhibition at 10000 µg/mL [5, 13] [mm]	MIC [12] [µg/mL]	MIC ([2]; two-fold serial dilution, S. cerevisiae) [µg/mL]
Cc1ccc2oc(=O)c3c(c2c1)OC(/N=C/c1ccc(Cl)cc1Cl)=C(C#N)C3c1ccc([N+](=O)[O-])cc1 (racemic) [5e, (±)-2-((2,4-dichlorobenzylidene)amino)-9-methyl-4-(4-nitrophenyl)-5-oxo-4H,5H-pyrano[3,2-c]chromene-3-carbonitrile]	15	45.78 ± 1.62	236 to 238	20.8	500 (≈ 939 µM)	8.27	2.52	15	— ((—): inactive (IC50 > 200 μg/mL))	22	16	500 (≈ 939 µM)	16	16	20	–	–	–	–
O=C(/C=C/c1ccc([N+](=O)[O-])cc1)c1ccc(NS(=O)(=O)c2c(O)c3cc(Cl)ccc3oc2=O)cc1 [9a, (E)-6-Chloro-4-hydroxy-N-(4-(3-(4-nitrophenyl)acryloyl)phenyl)-2-oxo-2H-chromene-3-sulfonamide]	< 15	62.14 ± 4.87	205 to 207	–	–	–	–	< 15	— ((—): inactive (IC50 > 200 μg/mL))	–	18	–	16	18	< 15	1000 (≈ 1900 µM)	< 15	1000 (≈ 1900 µM)	–
CC(=O)N1CCN(c2ccc(OCC3COC(Cn4ccnc4)(c4ccc(Cl)cc4Cl)O3)cc2)CC1 (stereo not drawn) [Ketoconazole, reference compound]	< 15	–	–	–	–	–	–	< 15	–	–	< 15	125 (≈ 235 µM)	< 15	< 15	28	–	30	–	125 (≈ 235 µM)
